Assay results as given in patent US20160317468A1, “USES OF CANNABIDIOL FOR TREATMENT OF INFANTILE SPASMS” (priority 2015, published 2016).

Tests used:
infantile spasms [1] = assay: Clinical trial of a composition comprising cannabidiol in subjects with infantile spasms, overnight video-EEG on day 14; type: in vivo; settings: human subjects 6 to 36 months who failed hormonal therapy and vigabatrin, CBD titrated to 40 mg/kg/day TID, control receives placebo
Procedure: Human subjects with video-EGG confirmed infantile spasms, between the ages of 6 months and 36 months, who have failed adequate treatments with hormonal therapy (adrenocorticotropic hormone (ACTH) (e.g., 150 IU/m2/day×2 weeks) and/or prednisolone (e.g., 8 mg/kg/day×2 weeks) and vigabatrin (e.g., 150 mg/kg/day×2 weeks)) will receive a composition comprising cannabidiol (“CBD”) according to the treatment schedule of Table 5. The control group receives placebo.
The 40 mg/kg/day treatment is optionally extended for up to one year in the cannabidiol group for subjects who display a response (FIG. 1). The cannabidiol dosage is tapered in the cannabidiol group according to Table 6.

infantile spasms [2] = settings: high-dose study; intramuscular ACTH therapy; cited from earlier work

Molecule | symptoms of infantile spasms on overnight video-EEG, cannabidiol group relative to control group (infantile spasms [1]) | patients with cessation of seizures and normal EEG patterns (infantile spasms [2])
C=C(C)[C@@H]1CCC(C)=C[C@H]1c1c(O)cc(CCCCC)cc1O [cannabidiol, (−)-trans-2-p-mentha-1,8-dien-3-yl-5-pentylresorcinol] | reduced symptoms of infantile spasms | –
adrenocorticotropic hormone (SYSMEHFRWGKPVGKKRRPVKVYPNGAEDESAEAFPLEF; Corticotropin; UniProt P01189 138-176, looked up) [ACTH] | – | 13 of the 15
